Test results published in patent US12162855B2, “Tetrahydroquinolino derivatives for the treatment of metastatic and chemoresistant cancers” (THE TRUSTEES OF PRINCETON UNIVERSITY, priority 2018, dated 2024).

Assays:
[1] = tested on: SUM159-M1-p44 cells; assay: Lung metastasis xenograft, SUM159-M1-p44 cells by tail-vein injection, BLI; format: in vivo, mouse; conditions: three doses of 50 mg/kg in combination with 25 mg/kg paclitaxel, days 17, 19 and 21
Description: In another xenograft experiment, mice were injected with SUM159-M1-p44 cells via tail-vein injection, as described above, and randomized following injection. Metastatic burden was imaged on day 16 via intravital imaging. Mice were then treated with paclitaxel (25 mg/kg) and either vehicle or MBE1.5 (50 mg/kg) on days 17, 19 and 21. Lung metastatic burden was then imaged on day 22. Signals were normalized to day 16.

[2] = tested on: MDA-MB-468 cells; assay: Primary tumor xenograft, MDA-MB-468 cells in mammary fat pad; format: in vivo; conditions: 12 days
Description: In yet another xenograft experiment, mice were injected with MDA-MB-468 cells via mammary fat pad, and were randomized following injection. Mice were treated with MBE1.5 (25 mg/kg daily, n=6) or vehicle (n=12), and paclitaxel (12.5 mg/kg every other day) for 12 days. Primary tumor measurements were taken by caliper between each treatment group.

[3] = tested on: Sum-159-M1a-Aldh1a3 cells; assay: Lung metastasis xenograft, Sum-159-M1a-Aldh1a3 cells by tail-vein injection; format: in vivo, mouse; conditions: 25 mg/kg daily with paclitaxel 12.5 mg/kg every other day, 12 days
Description: In another xenograft experiment, mice were injected with Sum-159-M1a-Aldh1a3 cells via tail-vein injection, and were randomized following injection. Mice were treated with MBE1.5 (25 mg/kg daily) or vehicle, and paclitaxel (12.5 mg/kg every other day) for twelve days. Lung metastasis progression was tracked by intravital bioluminescence.

[4] = tested on: SUM159-M1a cells; assay: Bone metastasis xenograft, SUM159-M1a cells by intracardiac injection, BLI; format: in vivo, mouse; conditions: MBE1 IP in conjunction with paclitaxel, intracardiac injection model
Description: (§1) All xenograft experiments were conducted on 8-week old female mice (athymic Nu/Nu, or NOD/SCID Gamma). Xenograft experiments were conducted using 125,000 SUM159-M1a cells in 100 μL PBS for tail vein or intracardiac injection. Mice were randomized following injection. Bioluminescent imaging (BLI) was conducted using the IVIS 200 system and retroorbital luciferin injection. For drug treatment, MBE1 (prepared as above) was given to mice via IP injection in conjunction with paclitaxel (5 mg/mL in 10% ethanol, 10% Kolliphor EL, 80% PBS) at the time intervals and dosages indicated in FIG. 5A (tail vein injection) and FIG. 6A (intracardiac injection).
(§2) FIG. 5B is a line graph of lung metastasis, as measured using bioluminescence imaging (BLI), versus time (days), and compares lung metastasis in the presence and absence of MBE1 in the mice from the experiment outlined in FIG. 5A. FIG. 6B is a line graph of bone metastasis, as measured using BLI, versus time (days), and compares bone metastasis in the presence and absence of MBE1 in the mice from the experiment outlined in FIG. 6A.

[5] = target: T1, Aldh3a1 (Homo sapiens, UniProt P30838); assay: ALDEFLUOR assay in MCF7 cells transduced with human Aldh3a1; format: cell-based; conditions: concentrations below 10 μM
T1 construct: expressed in transfected cells; host or cells: MCF7, lentiviral pLex vector
T1 sequence (P30838 1-453): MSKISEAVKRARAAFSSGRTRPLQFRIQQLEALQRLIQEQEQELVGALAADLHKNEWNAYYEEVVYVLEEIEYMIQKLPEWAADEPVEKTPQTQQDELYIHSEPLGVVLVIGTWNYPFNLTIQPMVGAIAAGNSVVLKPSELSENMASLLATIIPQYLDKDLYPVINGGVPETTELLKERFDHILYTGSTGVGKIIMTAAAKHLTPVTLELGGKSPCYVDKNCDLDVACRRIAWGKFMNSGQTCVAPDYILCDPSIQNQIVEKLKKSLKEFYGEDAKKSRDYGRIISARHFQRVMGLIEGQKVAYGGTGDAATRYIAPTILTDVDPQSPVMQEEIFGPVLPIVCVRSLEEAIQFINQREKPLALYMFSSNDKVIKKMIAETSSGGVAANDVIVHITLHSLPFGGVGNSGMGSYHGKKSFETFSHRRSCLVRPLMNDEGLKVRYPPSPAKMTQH
Description: (§3) The coding sequences of Aldh1a1, Aldh1a2, Aldh1a3 and Aldh3a1 were cloned from cDNA made from pooled human reference RNA samples. Cloned sequences flanked by Age1 and Xho1 restriction sites were inserted into the pLex lentiviral plasmid. Clones were sequenced and compared against NCBI expressed sequence tags (ESTs) for accuracy. […]. Viruses were collected and filtered at 0.45 μm, then cells were transduced using polybrene (8 μg/mL) for 12 hours, followed by culture with 1 μg/mL puromycin for the duration of experiments. All viral transduction and selection was performed on a cell population-wide basis.
(§4) Cells were counted, centrifuged and resuspended at 1,000,000 cells/mL in ALDEFLUOR™ buffer (Stemcell Technologies). ALDEFLUOR™ substrate (Stemcell Technologies, 1:200) and test compound or 1 mM DEAB were added to cell suspension and incubated at 37° C. for 45 minutes with vortexing every 15 minutes. Cells were centrifuged and resuspended in ALDEFLUOR™ buffer with DAPI at 5 μg/mL. Samples were analyzed with the BD LSR2 flow cytometry platform. Gating was performed using DEAB as a negative control.

[6] = tested on: SUM159-M1a cells; assay: Lung metastasis xenograft, SUM159-M1a cells by tail vein injection, BLI; format: in vivo, mouse; conditions: MBE1 IP in conjunction with paclitaxel, tail vein injection model
Description: as §1, §2

[7] = target: T2, Aldh1a1 (Homo sapiens, UniProt P00352); assay: ALDEFLUOR assay in MCF7 cells transduced with human Aldh1a1; format: cell-based; conditions: concentrations below 10 μM
T2 construct: expressed in transfected cells; host or cells: MCF7, lentiviral pLex vector
T2 sequence (P00352 1-501): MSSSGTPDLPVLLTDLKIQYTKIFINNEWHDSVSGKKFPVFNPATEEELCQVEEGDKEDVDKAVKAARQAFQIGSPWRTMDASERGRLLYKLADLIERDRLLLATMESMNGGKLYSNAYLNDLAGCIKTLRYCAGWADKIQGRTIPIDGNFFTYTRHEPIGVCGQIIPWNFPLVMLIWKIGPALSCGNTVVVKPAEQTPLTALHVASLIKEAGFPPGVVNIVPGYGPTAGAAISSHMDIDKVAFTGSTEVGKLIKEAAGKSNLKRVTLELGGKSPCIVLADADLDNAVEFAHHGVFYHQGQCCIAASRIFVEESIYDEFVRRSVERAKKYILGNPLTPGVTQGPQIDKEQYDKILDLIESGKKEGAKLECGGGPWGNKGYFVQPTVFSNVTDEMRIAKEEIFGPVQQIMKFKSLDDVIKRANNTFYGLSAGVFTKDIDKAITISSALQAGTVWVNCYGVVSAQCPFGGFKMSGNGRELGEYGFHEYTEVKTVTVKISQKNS
Description: as §3, §4

Row | SMILES | lung metastasis by BLI (FIG. 14) [1] | complete tumor elimination ([2]; 25 mg/kg daily (n=6) with paclitaxel 12.5 mg/kg every other day) | gross toxicity, body mass (FIG. 15A) ([2]; 25 mg/kg daily with paclitaxel 12.5 mg/kg every other day) | tumor volume (FIG. 15B) ([2]; 25 mg/kg daily with paclitaxel 12.5 mg/kg every other day, MDA-MB-468 primary tumors) | mouse survival, Kaplan-Meier (FIG. 16B) [3] | bone metastasis by BLI (FIG. 6B) [4] | inhibition of Aldh3a1 activity (FIG. 2A) [5] | lung metastasis by BLI (FIG. 5B) [6] | inhibition of Aldh1a1 activity (FIG. 2A) [7]
1 | CCc1ccccc1C(=O)Nc1cc2c(cc1F)NC(=O)CC2 [MBE1.5, 2-ethyl-N-(7-fluoro-2-oxo-1,2,3,4-tetrahydroquinolin-6-yl)benzamide] | caused regression of established metastatic disease | tumors of two mice in the MBE1.5 treatment group were completely eliminated | no gross toxicity | caused regression of primary breast tumors | extended survival in mice with late-stage established breast cancer lung metastasis |  |  |  | 
2 | CCc1cnccc1C(=O)Nc1cc2c(cc1F)NC(=O)CC2 [MBE1, 3-ethyl-N-(7-fluoro-2-oxo-1,2,3,4-tetrahydroquinolin-6-yl)isonicotinamide] |  |  |  |  |  | effective therapeutic to treat established metastatic disease | does not inhibit | effective therapeutic to treat established metastatic disease | does not inhibit
